# Data published in the supplement of paper PMC6045584.
# ± gives the standard deviation of the averaged measurements.
# Legend:
# [1] = compound: CC(=O)NCC(=O)N1[C@@H]2CC[C@H]1c1ccc(Nc3ncc(C(F)(F)F)c(NC4CCC4)n3)cc12; test: surviving fraction relative to DMSO-only wells; higher = less growth inhibition; conditions: exposure time: 5 days
# Method in brief: (§1)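 Surviving fraction was calculated by normalising CellTiter-Glo luminescence to the median of DMSO-only wells. Tumour cell lines in log phase were seeded in 384-well plates at 250–500 cells per well, and 24 hours later were exposed continuously for five days to inhibitors at 0.5, 1, 5, 10, 50, 100, 500 and 1000 nM.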
# PACLITAXEL [2] = compound: T1, CC(=O)O[C@H]1C(=O)[C@@]2(C)[C@H]([C@H](OC(=O)c3ccccc3)[C@]3(O)C[C@H](OC(=O)[C@H](O)[C@@H](NC(=O)c4ccccc4)c4ccccc4)C(C)=C1C3(C)C)[C@]1(OC(C)=O)CO[C@@H]1C[C@@H]2O [PACLITAXEL]; test: as above; conditions: exposure time: 5 days
# Method in brief: as §1
# [3] = compound: CC(=O)c1c(C)c2cnc(Nc3ccc(N4CCNCC4)cn3)nc2n(C2CCCC2)c1=O; test: as above; conditions: exposure time: 5 days
# Method in brief: as §1
# CAMPTOTHECIN [4] = compound: T2, CC[C@@]1(O)C(=O)OCc2c1cc1n(c2=O)Cc2cc3ccccc3nc2-1 [CAMPTOTHECIN]; test: as above; conditions: exposure time: 5 days
# Method in brief: as §1
# YM155 [5] = compound: T3, COCC[n+]1c2c(n(Cc3cnccn3)c1C)C(=O)c1ccccc1C2=O [YM155]; test: as above; conditions: exposure time: 5 days
# Method in brief: as §1
# GEFITINIB = compound: COc1cc2ncnc(Nc3ccc(F)c(Cl)c3)c2cc1OCCCN1CCOCC1 [GEFITINIB]; test: as above; conditions: exposure time: 5 days
# Method in brief: as §1
# OSI-906 = compound: C[C@]1(O)C[C@@H](c2nc(-c3ccc4ccc(-c5ccccc5)nc4c3)c3c(N)nccn32)C1 [OSI-906]; test: as above; conditions: exposure time: 5 days
# Method in brief: as §1
# CELECOXIB [6] = compound: T4, Cc1ccc(-c2cc(C(F)(F)F)nn2-c2ccc(S(N)(=O)=O)cc2)cc1 [CELECOXIB]; test: as above; conditions: exposure time: 5 days
# Method in brief: as §1
# CARBOPLATIN [7] = compound: T5, O=C(O)C1(C(=O)O)CCC1.[NH2-].[NH2-].[Pt+2] [CARBOPLATIN]; test: as above; conditions: exposure time: 5 days
# Method in brief: as §1
# [8] = compound: CC(=O)NCC(=O)N1[C@@H]2CC[C@H]1c1ccc(Nc3ncc(C(F)(F)F)c(NC4CCC4)n3)cc12; test: area under dose-response curve of surviving fraction (unscaled, Aref=0) (surviving fraction x log10(nM)); higher = more resistant; conditions: exposure time: 5 days; dose range 0.5-1000 nM
# Method in brief: (§2)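 Surviving fractions were fitted by 3-parameter logistic regression in the drc R package to give dose-response survival curves. They came from tumour cell lines treated for five days with eight inhibitor concentrations from 0.5 to 1000 nM and read by CellTiter-Glo luminescence against DMSO-only wells. The area under the curve is the unscaled activity area. It was calculated over log10 dose with Aref = 0.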
# PACLITAXEL [9] = compound: T1, PACLITAXEL; test: as above; conditions: exposure time: 5 days; dose range 0.5-1000 nM
# Method in brief: as §2
# [10] = compound: CC(=O)c1c(C)c2cnc(Nc3ccc(N4CCNCC4)cn3)nc2n(C2CCCC2)c1=O; test: as above; conditions: exposure time: 5 days; dose range 0.5-1000 nM
# Method in brief: as §2
# CAMPTOTHECIN [11] = compound: T2, CAMPTOTHECIN; test: as above; conditions: exposure time: 5 days; dose range 0.5-1000 nM
# Method in brief: as §2
# YM155 [12] = compound: T3, YM155; test: as above; conditions: exposure time: 5 days; dose range 0.5-1000 nM
# Method in brief: as §2
# CELECOXIB [13] = compound: T4, CELECOXIB; test: as above; conditions: exposure time: 5 days; dose range 0.5-1000 nM
# Method in brief: as §2
# CARBOPLATIN [14] = compound: T5, CARBOPLATIN; test: as above; conditions: exposure time: 5 days; dose range 0.5-1000 nM
# Method in brief: as §2
test system,measurement,setting,value
MDAMB453 BREAST,surviving fraction,[1]; 0.5 nM,1.03 ± 0.021
same,surviving fraction,[1]; 1 nM,1.05 ± 0.034
same,surviving fraction,[1]; 5 nM,1.01 ± 0.046
same,surviving fraction,[1]; 10 nM,1.07 ± 0.032
same,surviving fraction,[1]; 50 nM,0.794 ± 0.091
same,surviving fraction,[1]; 100 nM,0.725 ± 0.094
same,surviving fraction,[1]; 500 nM,0.541 ± 0.038
same,surviving fraction,[1]; 1000 nM,0.413 ± 0.015
same,surviving fraction,PACLITAXEL [2]; 0.5 nM,0.988 ± 0.082
same,surviving fraction,PACLITAXEL [2]; 1 nM,0.998 ± 0.096
same,surviving fraction,PACLITAXEL [2]; 5 nM,0.382 ± 0.051
same,surviving fraction,PACLITAXEL [2]; 10 nM,0.303 ± 0.02
same,surviving fraction,PACLITAXEL [2]; 50 nM,0.164 ± 0.014
same,surviving fraction,PACLITAXEL [2]; 100 nM,0.145 ± 0.016
same,surviving fraction,PACLITAXEL [2]; 500 nM,0.131 ± 0.015
same,surviving fraction,PACLITAXEL [2]; 1000 nM,0.134 ± 0.015
same,surviving fraction,[3]; 0.5 nM,1.05 ± 0.018
same,surviving fraction,[3]; 1 nM,1.04 ± 0.043
same,surviving fraction,[3]; 5 nM,1.07 ± 0.026
same,surviving fraction,[3]; 10 nM,1.11 ± 0.044
same,surviving fraction,[3]; 50 nM,1.15 ± 0.1
same,surviving fraction,[3]; 100 nM,1.11 ± 0.061
same,surviving fraction,[3]; 500 nM,1 ± 0.026
same,surviving fraction,[3]; 1000 nM,1.01 ± 0.071
same,surviving fraction,CAMPTOTHECIN [4]; 0.5 nM,0.966 ± 0.069
same,surviving fraction,CAMPTOTHECIN [4]; 1 nM,0.966 ± 0.017
same,surviving fraction,CAMPTOTHECIN [4]; 5 nM,1.01 ± 0.048
same,surviving fraction,CAMPTOTHECIN [4]; 10 nM,0.942 ± 0.058
same,surviving fraction,CAMPTOTHECIN [4]; 50 nM,0.43 ± 0.03
same,surviving fraction,CAMPTOTHECIN [4]; 100 nM,0.453 ± 0.015
same,surviving fraction,CAMPTOTHECIN [4]; 500 nM,0.109 ± 0.016
same,surviving fraction,CAMPTOTHECIN [4]; 1000 nM,0.091 ± 0.0027
same,surviving fraction,YM155 [5]; 0.5 nM,0.989 ± 0.048
same,surviving fraction,YM155 [5]; 1 nM,0.949 ± 0.089
same,surviving fraction,YM155 [5]; 5 nM,0.306 ± 0.021
same,surviving fraction,YM155 [5]; 10 nM,0.2993 ± 0.0025
same,surviving fraction,YM155 [5]; 50 nM,0.11 ± 0.0085
same,surviving fraction,YM155 [5]; 100 nM,0.0773 ± 0.014
same,surviving fraction,YM155 [5]; 500 nM,0.0533 ± 0.0076
same,surviving fraction,YM155 [5]; 1000 nM,0.057 ± 0.017
same,surviving fraction,GEFITINIB; 0.5 nM,1.09 ± 0.045
same,surviving fraction,GEFITINIB; 1 nM,1.07 ± 0.078
same,surviving fraction,GEFITINIB; 5 nM,1.19 ± 0.078
same,surviving fraction,GEFITINIB; 10 nM,1.1 ± 0.024
same,surviving fraction,GEFITINIB; 50 nM,1.14 ± 0.053
same,surviving fraction,GEFITINIB; 100 nM,1.13 ± 0.087
same,surviving fraction,GEFITINIB; 500 nM,1.06 ± 0.05
same,surviving fraction,GEFITINIB; 1000 nM,1.04 ± 0.039
same,surviving fraction,OSI-906; 0.5 nM,1.03 ± 0.03
same,surviving fraction,OSI-906; 1 nM,1.03 ± 0.016
same,surviving fraction,OSI-906; 5 nM,1.077 ± 0.0087
same,surviving fraction,OSI-906; 10 nM,1.06 ± 0.021
same,surviving fraction,OSI-906; 50 nM,1.06 ± 0.051
same,surviving fraction,OSI-906; 100 nM,1.04 ± 0.014
same,surviving fraction,OSI-906; 500 nM,1.02 ± 0.042
same,surviving fraction,OSI-906; 1000 nM,0.98 ± 0.035
same,surviving fraction,CELECOXIB [6]; 0.5 nM,1.07 ± 0.076
same,surviving fraction,CELECOXIB [6]; 1 nM,1.1 ± 0.079
same,surviving fraction,CELECOXIB [6]; 5 nM,1.09 ± 0.072
same,surviving fraction,CELECOXIB [6]; 10 nM,1.18 ± 0.1
same,surviving fraction,CELECOXIB [6]; 50 nM,1.14 ± 0.021
same,surviving fraction,CELECOXIB [6]; 100 nM,1.12 ± 0.03
same,surviving fraction,CELECOXIB [6]; 500 nM,1.04 ± 0.044
same,surviving fraction,CELECOXIB [6]; 1000 nM,1.09 ± 0.04
same,surviving fraction,CARBOPLATIN [7]; 0.5 nM,1.07 ± 0.068
same,surviving fraction,CARBOPLATIN [7]; 1 nM,1.05 ± 0.07
same,surviving fraction,CARBOPLATIN [7]; 5 nM,1.15 ± 0.024
same,surviving fraction,CARBOPLATIN [7]; 10 nM,1.1 ± 0.076
same,surviving fraction,CARBOPLATIN [7]; 50 nM,1.07 ± 0.018
same,surviving fraction,CARBOPLATIN [7]; 100 nM,1.1 ± 0.069
same,surviving fraction,CARBOPLATIN [7]; 500 nM,1.01 ± 0.02
same,surviving fraction,CARBOPLATIN [7]; 1000 nM,0.993 ± 0.011
same,area under dose-response curve,[8],2.73
same,area under dose-response curve,PACLITAXEL [9],1.23
same,area under dose-response curve,[10],3.52
same,area under dose-response curve,CAMPTOTHECIN [11],2.11
same,area under dose-response curve,YM155 [12],1.04
same,area under dose-response curve,CELECOXIB [13],3.64
same,area under dose-response curve,CARBOPLATIN [14],3.54
